Here are results for five substances from paper PMC4620744 (Molecular cell, 2015).

For test [1], the system named is H2A-H2B^30-130 bearing H2B Y45A. Kind of test: ITC binding to H2A-H2B^30-130 bearing H2B Y45A. More on the design: species or system Saccharomyces cerevisiae.
Test [2] concerns H2A-H2B^30-130 bearing H2B M62A. Kind of test: ITC binding to H2A-H2B^30-130 bearing H2B M62A. More on the design: species or system Saccharomyces cerevisiae.
Test [3] deals with full-length H2A-H2B (Saccharomyces cerevisiae, UniProt P02293+P04911). Kind of test: ITC binding to full-length H2A-H2B.
Test [4] relates to H2A-H2B^30-130 H2B M62E. Kind of test: ITC binding to H2A-H2B^30-130 bearing H2B M62E. More on the design: species or system Saccharomyces cerevisiae.
For test [5], the system named is H2A R78A H2A-H2B^30-130. Put plainly: ITC binding to H2A-H2B^30-130 bearing H2A R78A. More on the design: species or system Saccharomyces cerevisiae.
Test [6] relates to H2A R78E H2A-H2B^30-130. Put plainly: ITC binding to H2A-H2B^30-130 bearing H2A R78E. More on the design: species or system Saccharomyces cerevisiae.
Test [7] has as its system H2A-H2B M62E. Put plainly: ITC binding of full-length FACT to H2A-H2B M62E. The arrangement: species or system Saccharomyces cerevisiae.
The test system of test [8] is H2A-H2B M62E. Put plainly: EMSA binding of full-length FACT to H2A-H2B M62E. The arrangement: species or system Saccharomyces cerevisiae. As to conditions: not shown.
Test [9] relates to H2A.Z-H2B. Put plainly: EMSA of full-length FACT with H2A.Z-H2B. It is filed as binding, Saccharomyces cerevisiae. A general note: In EMSA bound probe runs differently from free probe, usually more slowly.

Where no end group is shown, it is not given here.

full-length H2A-H2B, sequence (P04911 2-132 limits assumed): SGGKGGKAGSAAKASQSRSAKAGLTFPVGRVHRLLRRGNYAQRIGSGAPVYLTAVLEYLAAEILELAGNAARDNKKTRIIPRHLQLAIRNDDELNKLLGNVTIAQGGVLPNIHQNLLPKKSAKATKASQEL
full-length H2A-H2B, sequence (P02293 2-131 limits assumed): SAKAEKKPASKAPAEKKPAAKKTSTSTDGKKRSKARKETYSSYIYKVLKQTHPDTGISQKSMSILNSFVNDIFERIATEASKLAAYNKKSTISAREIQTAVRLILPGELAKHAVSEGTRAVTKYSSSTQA

“DESVDEDFQVSSDNDADEVAEEFDS [Pob3^505-529]”: in test [1], the “reduction in binding (fold) with H2B Y45A relative to wild-type histones” value was 12 fold. In [2], the “reduction in binding (fold) with H2B M62A relative to wild-type histones” value was determined as 9 fold.
With Pob3: Pob3 subunit of FACT, the Kd – broadly, the free concentration of one partner at which half of the binding sites on the other are occupied at equilibrium, for simple one-to-one binding – in [3] (read-out: dissociation constant (KD) for H2A-H2B, 25 °C, 25 mM Na-K phosphate pH 7.4, 200 mM NaCl, at least triplicate) was about 1000 nM.
For the substance “Spt16-C^958-999: Spt16 residues 958-999 (DDEASDESEEEVSEYEASEDDVSDESAFSEDEEGSEVDDDIS)”, the “binding to H2A-H2B (in words)” value in [3] (25 °C, pH 7.4, 200 mM NaCl) is given as “recapitulates the full H2A-H2B binding activity of Spt16”.
On to “Spt16^958-990: Spt16 peptide of residues 958-990 used for crystal structure and histone mutant binding (DDEASDESEEEVSEYEASEDDVSDESAFSEDEE)”, for which the “binding to H2B M62E histone mutant (in words)” value in test [4] is on record as “reduced binding to undetectable levels”. For the same substance, the “binding to H2A R78A histone mutant (in words)” value in test [5] is on record as “little effect on binding”. For the same substance, the “binding to H2A R78E histone mutant (in words)” value in [6] was “affinity was completely lost”.
Regarding “full-length FACT: full-length S. cerevisiae Spt16-Pob3 heterodimer”, the “stoichiometry of binding to H2A-H2B” value in test [3] (25 °C, pH 7.4, 200 mM NaCl) was “one full-length Spt16-Pob3 heterodimer bound two H2A-H2B dimers”. Moreover, the “binding of full-length FACT to H2A-H2B M62E by ITC (in words)” value in test [7] is on record as “severe reduction in the binding”. The “binding of full-length FACT to H2A-H2B M62E by EMSA (in words)” value in [8] is “diminished binding”. Also, the “discrimination between H2A.Z-H2B and H2A-H2B by EMSA (in words)” value in test [9] is “does not differentiate between H2A.Z-H2B and H2A-H2B”.
